Among the data in patent US20220306630A1, “AGONISTS OF ROR GAMMAt” (BRISTOL-MYERS SQUIBB COMPANY, priority 2019, published 2022) are EC50 values, retold here.

This test concerns the target T1, RORgT (Homo sapiens, UniProt P51449).
T1 construct: Gal4 (fusion partner); expressed in transfected cells; host or cells: engineered Jurkat cells (Jurkat pEx/Gal/hRORγ CLBD/HYG pG5luc/blast)
T1 sequence (P51449 267-516): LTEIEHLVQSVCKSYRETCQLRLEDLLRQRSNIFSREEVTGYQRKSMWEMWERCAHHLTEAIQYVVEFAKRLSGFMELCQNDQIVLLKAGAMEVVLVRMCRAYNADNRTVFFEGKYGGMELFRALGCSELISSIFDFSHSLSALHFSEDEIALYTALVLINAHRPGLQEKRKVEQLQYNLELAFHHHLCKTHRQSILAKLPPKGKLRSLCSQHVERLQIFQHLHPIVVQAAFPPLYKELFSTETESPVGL
The test can be described thus: RORgT Gal4 Luciferase Reporter Gene Assay. The note with it: engineered Jurkat cells overexpressing RORgT (LBD or full length) with Gal4 Luc reporter; 18 hours at 37° C.; 40 μM to 0.67 nM; read-out: RORg_GAL4 EC50. Format: cell-based. Put shortly:
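Cells exposed to compound 18 hours at 37° C, then lysed for luciferase luminescence. Inhibition of constitutive activity expressed as percent reduction of signal window relative to a control compound.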
For the compound `COc1ccc(Oc2c(Cl)cc(NC(=O)Cc3ccnc(S(C)(=O)=O)c3)cc2Cl)cc1C(C)C` [Example 241], the EC50 came out at 64 nM. For `COc1ncc(Oc2c(Cl)cc(NC(=O)CC3CCN(S(C)(=O)=O)CC3)cc2Cl)cc1C(C)C(F)(F)F` (stereo not shown) [Example 134] the value was 3.2 nM; for `COc1ccc(Oc2c(Cl)cc(NC(=O)CN3CC(NS(C)(=O)=O)C3)cc2Cl)cc1C(C)C` [Example 163], 340 nM. For `COc1ccc(Oc2c(Cl)cc(NC(=O)Cc3cncc(C(N)=O)c3)cc2Cl)cc1C(C)C` [Example 6, 5-(2-((3,5-dichloro-4-(3-isopropyl-4-methoxyphenoxy)phenyl)amino)-2-oxoethyl)nicotinamide] the value was 533 nM; for `COc1ccc(Oc2c(Cl)cc(NC(=O)Cc3cnn(S(C)(=O)=O)c3)cc2Cl)cc1C(C)(C)C` [Example 256], 153 nM. The figure for `CCCS(=O)(=O)Nc1cc(Cl)c(Oc2ccc(OC)c(C(C)C)c2)c(Cl)c1` [Example 303] is 858 nM. Consider `COc1ccc(Oc2c(Cl)cc(NC(=O)CCC(=O)O)cc2Cl)cc1C(C)C` [Example 340], for which the concentration giving a half-maximal response (EC50) amounted to 5530 nM. On to `COc1ccc(Oc2c(Cl)cc(NC(=O)Cc3cccc(S(N)(=O)=O)c3)cc2Cl)cc1C(C)C` [Example 244], for which the 50% effective concentration (EC50) came to 37 nM. The figure for `COc1ccc(Oc2c(Cl)ccc(CNS(=O)(=O)C3CCN(S(N)(=O)=O)CC3)c2Cl)cc1C(C)C` [Example 98] is 20 nM; for `CC(C)c1cc(F)cc(Oc2c(Cl)ccc(C(=O)NCC3CCN(S(=O)(=O)C(C)C)CC3)c2Cl)c1` [Example 116] it is 350 nM; for `COc1ccc(Oc2c(Cl)cc(NC(=O)CC3CCCN(S(C)(=O)=O)C3)cc2Cl)cc1C(C)C` (single isomer, unassigned) [Example 42, N-(3,5-dichloro-4-(3-isopropyl-4-methoxyphenoxy)phenyl)-2-(1-(methylsulfonyl)piperidin-3-yl)acetamide] it is 207 nM. As to `COc1ccc(Oc2c(Cl)cc(NC(=O)CN3CC4(C3)CN(S(=O)(=O)C3CC3)C4)cc2Cl)cc1C(C)C` [Example 229], the EC50 is 891 nM. Consider `COc1ccc(Oc2c(Cl)cc(NC(=O)Cc3cnccn3)cc2Cl)cc1C(C)C` [Example 286], for which the concentration for a half-maximal effect (EC50) worked out at 316 nM.

On to `CC(c1cc(F)cc(Oc2c(Cl)cc(NC(=O)Cc3ccc(S(C)(=O)=O)cc3)cc2Cl)c1)C(F)(F)F` (stereo not shown) [Example 354], for which the EC50 turned out to be 3.5 nM. With `COc1ncc(Oc2c(Cl)cc(NC(=O)CN3CCC(S(C)(=O)=O)CC3)cc2Cl)cc1C(C)C` [Example 268], the half-maximal effective concentration (EC50) worked out at 40 nM. On to `COc1ccc(Oc2c(Cl)ccc(C(=O)NCc3cc(C)no3)c2Cl)cc1C(C)C` [Example 205], for which the EC50 worked out at 564 nM. The figure for `COc1ccc(Oc2c(Cl)ccc(C(=O)NCc3ccccc3Cl)c2Cl)cc1C(C)C` [Example 200] is 330 nM; for `COc1ccc(Oc2c(Cl)cc(NC(=O)Cc3cccnc3)cc2Cl)cc1C(C)(C)O` [Example 335] it is 722 nM; for `COc1ccc(Oc2c(Cl)cc(NC(=O)Cn3ccnc3)cc2Cl)cc1C(C)C` [Example 302] it is 185 nM.

With `COc1ccc(Oc2c(Cl)ccc(C(=O)NC3CCC(O)CC3)c2Cl)cc1C(C)C` (stereo not shown) [Example 197], the EC50 came to 860 nM.

As to `COc1ncc(Oc2c(Cl)ccc(NC(=O)CC3CCN(S(C)(=O)=O)CC3)c2Cl)cc1C(C)C` [Example 129], the concentration giving a half-maximal response (EC50) is 11 nM. Regarding `COc1ccc(Oc2c(Cl)cc(NC(=O)Cc3cncnc3)cc2Cl)cc1C(C)C` [Example 342], the half-maximal effective concentration (EC50) came to 136 nM. The figure for `Cc1ccc(Oc2c(Cl)cc(NC(=O)Cc3cccnc3)cc2Cl)cc1C(C)C` [Example 49, N-(3,5-dichloro-4-(3-isopropyl-4-methylphenoxy)phenyl)-2-(pyridin-3-yl)acetamide] is 344 nM. For `COc1ncc(Oc2c(Cl)ccc(C(=O)NCC3CCN(S(C)(=O)=O)CC3)c2Cl)cc1C(C)C` [Example 72] the value was 33 nM. As for `COc1ccc(Oc2c(Cl)ccc(C(=O)NCc3ccc(N(C)C)cc3)c2Cl)cc1C(C)C` [Example 195], the concentration for a half-maximal effect (EC50) is 616 nM. With `CC(C)c1cc(Oc2c(Cl)cc(NC(=O)Cc3cccnc3)cc2Cl)ccc1C1CC1` [Example 324], the concentration giving a half-maximal response (EC50) came out at 214 nM. For `COc1ccc(Oc2c(Cl)ccc(C(=O)NCCCn3ccnc3)c2Cl)cc1C(C)C` [Example 80] the value was 287 nM; for `CC(C)c1cc(F)cc(Oc2c(Cl)ccc(CNC(=O)c3ccc(S(N)(=O)=O)cc3)c2Cl)c1` [Example 150], 8.2 nM; for `COc1ccc(Oc2c(Cl)ccc(C(=O)N(C)CC3(O)CCN(S(C)(=O)=O)CC3)c2Cl)cc1C(C)C` [Example 64], 23 nM. Turning to `COc1ccc(Oc2c(Cl)cc(NC(=O)Nc3cccnc3)cc2Cl)cc1C(C)C` [Example 232], the 50% effective concentration (EC50) worked out at 285 nM.

Turning to `COc1ccc(Oc2c(Cl)ccc(C(=O)Nc3cccc4cnccc34)c2Cl)cc1C(C)C` [Example 207], the concentration giving a half-maximal response (EC50) came out at 63 nM. For `COc1ccc(Oc2c(Cl)cc(NC(=O)Cc3cnn(C)c3)cc2Cl)cc1C(C)C` [Example 246] the value was 123 nM; for `COc1ccc(Oc2c(Cl)cc(NC(=O)CN(C)C)cc2Cl)cc1C(C)C` [Example 280], 656 nM. On to `COc1ccc(Oc2c(Cl)ccc(C(=O)N3CCC(N(C)C)CC3)c2Cl)cc1C(C)C` [Example 192], for which the EC50 is 89 nM. For `COc1ncc(Oc2c(Cl)cc(NC(=O)CC3CCN(S(N)(=O)=O)CC3)cc2Cl)cc1C(C)C` [Example 121] the value was 13 nM; for `COc1ccc(Oc2c(Cl)ccc(C(=O)NCCc3nc4ccccc4s3)c2Cl)cc1C(C)C` [Example 178], 336 nM; for `COc1ncc(Oc2c(Cl)cc(NC(=O)CC3CCN(S(C)(=O)=O)CC3)cc2Cl)cc1C(C)(C)O` [Example 27, N-(3,5-dichloro-4-((5-(2-hydroxypropan-2-yl)-6-methoxypyridin-3-yl)oxy)phenyl)-2-(1-(methylsulfonyl)piperidin-4-yl)acetamide], 30 nM. In the case of `COc1ccc(Oc2c(Cl)ccc(CNC(=O)C3CCN(S(=O)(=O)C4CC4)CC3)c2Cl)cc1C(C)C` [Example 97], the EC50 came to 14 nM. The figure for `COc1ccc(Oc2c(Cl)ccc(C(=O)N3CCC4(CCN(S(C)(=O)=O)CC4)C3)c2Cl)cc1C(C)C` [Example 107] is 35 nM; for `COc1ccc(Oc2c(Cl)cc(NC(=O)Cc3cccnc3)cc2Cl)cc1C(C)(C)C` [Example 13, N-(4-(3-(tert-butyl)-4-methoxyphenoxy)-3,5-dichlorophenyl)-2-(pyridin-3-yl)acetamide] it is 268 nM. With `CCS(=O)(=O)N1CC2(CCN(C(=O)c3ccc(Cl)c(Oc4cc(F)cc(C(C)C)c4)c3Cl)CC2)C1` [Example 124], the 50% effective concentration (EC50) was determined as 121 nM. For the compound `COc1ncc(Oc2c(Cl)ccc(C(=O)NC(C)c3ccc(S(C)(=O)=O)cc3)c2Cl)cc1C(C)C` (stereo not shown) [Example 137], the EC50 is 14 nM. For `CC(C)(F)c1cc(F)cc(Oc2c(Cl)cc(NC(=O)CC3CCN(S(C)(=O)=O)CC3)cc2Cl)c1` [Example 333], the EC50 stood at 8.1 nM.

Take `COc1ccc(Oc2c(Cl)cc(NC(=O)CC3CCCN(S(C)(=O)=O)C3)cc2Cl)cc1C(C)C` (racemic) [Example 41, N-(3,5-dichloro-4-(3-isopropyl-4-methoxyphenoxy)phenyl)-2-(1-(methylsulfonyl)piperidin-3-yl)acetamide]: the EC50 turned out to be 356 nM. For `COc1ccc(Oc2c(Cl)cc(NC(=O)CC#N)cc2Cl)cc1C(C)C` [Example 301] the value was 343 nM. On to `COc1ccc(Oc2c(Cl)ccc(C(=O)NCc3ccc(C#N)cc3)c2Cl)cc1C(C)C` [Example 228], for which the half-maximal effective concentration (EC50) turned out to be 102 nM. The figure for `COc1ccc(Oc2c(Cl)cc(NC(=O)C3CC3)cc2Cl)cc1C(C)C` [Example 292] is 940 nM; for `COc1ncc(Oc2c(Cl)ccc(C(=O)NCc3ccc(S(N)(=O)=O)cc3)c2Cl)cc1C(C)(C)F` [Example 154] it is 6.6 nM; for `COc1ccc(Oc2c(Cl)ccc(C(=O)N3CCC(O)CC3)c2Cl)cc1C(C)C` [Example 189] it is 40 nM.

Turning to `COc1ccc(Oc2c(Cl)cc(NC(=O)CCN3CCOCC3)cc2Cl)cc1C(C)C` [Example 296], the EC50 was 1010 nM.

Turning to `COc1ccc(Oc2c(Cl)ccc(CNC(=O)C3CN(S(C)(=O)=O)C3)c2Cl)cc1C(C)C` [Example 88], the EC50 was determined as 24 nM.

Take `COc1ccc(Oc2c(Cl)ccc(C(=O)NC(C)c3ccnn3C)c2Cl)cc1C(C)C` (stereo not shown) [Example 217]: the EC50 worked out at 45 nM. For `CS(=O)(=O)N1CCN(CC(=O)Nc2cc(Cl)c(Oc3ccc(F)c(C4CC4)c3)c(Cl)c2)CC1` [Example 271] the value was 78 nM. Turning to `CC1(c2cc(F)cc(Oc3c(Cl)cc(NC(=O)CC4CCN(S(C)(=O)=O)CC4)cc3Cl)c2)CC1` [Example 51, N-(3,5-dichloro-4-(3-fluoro-5-(1-methylcyclopropyl)phenoxy)phenyl)-2-(1-(methylsulfonyl)piperidin-4-yl)acetamide], the EC50 was 1.7 nM.

As for `COc1ccc(Oc2c(Cl)ccc(C(=O)NCC3CCCC(O)C3)c2Cl)cc1C(C)C` (stereo not shown) [Example 225], the concentration for a half-maximal effect (EC50) turned out to be 920 nM. The figure for `COc1ccc(Oc2c(Cl)cc(NC(=O)CN3CC[C@H](NS(=O)(=O)C4CC4)C3)cc2Cl)cc1C(C)C` [Example 170] is 370 nM. The figure for `COc1ccc(Oc2c(Cl)cc(NC(=O)C3(c4cnccn4)CC3)cc2Cl)cc1C(C)C` [Example 346] is 816 nM. The figure for `CC(C)c1cc(Oc2c(Cl)ccc(C(=O)N3CCC4(CC3)CN(S(C)(=O)=O)C4)c2Cl)ccc1F` [Example 132] is 6.3 nM.
